The target of data set [1] is T1, progesterone receptor (PR) (Homo sapiens, UniProt P06401).
T1 construct: alkaline phosphatase assay with the T47D human breast cancer cell line; endogenous in cells; host or cells: T47D
T1 sequence (P06401 1-933): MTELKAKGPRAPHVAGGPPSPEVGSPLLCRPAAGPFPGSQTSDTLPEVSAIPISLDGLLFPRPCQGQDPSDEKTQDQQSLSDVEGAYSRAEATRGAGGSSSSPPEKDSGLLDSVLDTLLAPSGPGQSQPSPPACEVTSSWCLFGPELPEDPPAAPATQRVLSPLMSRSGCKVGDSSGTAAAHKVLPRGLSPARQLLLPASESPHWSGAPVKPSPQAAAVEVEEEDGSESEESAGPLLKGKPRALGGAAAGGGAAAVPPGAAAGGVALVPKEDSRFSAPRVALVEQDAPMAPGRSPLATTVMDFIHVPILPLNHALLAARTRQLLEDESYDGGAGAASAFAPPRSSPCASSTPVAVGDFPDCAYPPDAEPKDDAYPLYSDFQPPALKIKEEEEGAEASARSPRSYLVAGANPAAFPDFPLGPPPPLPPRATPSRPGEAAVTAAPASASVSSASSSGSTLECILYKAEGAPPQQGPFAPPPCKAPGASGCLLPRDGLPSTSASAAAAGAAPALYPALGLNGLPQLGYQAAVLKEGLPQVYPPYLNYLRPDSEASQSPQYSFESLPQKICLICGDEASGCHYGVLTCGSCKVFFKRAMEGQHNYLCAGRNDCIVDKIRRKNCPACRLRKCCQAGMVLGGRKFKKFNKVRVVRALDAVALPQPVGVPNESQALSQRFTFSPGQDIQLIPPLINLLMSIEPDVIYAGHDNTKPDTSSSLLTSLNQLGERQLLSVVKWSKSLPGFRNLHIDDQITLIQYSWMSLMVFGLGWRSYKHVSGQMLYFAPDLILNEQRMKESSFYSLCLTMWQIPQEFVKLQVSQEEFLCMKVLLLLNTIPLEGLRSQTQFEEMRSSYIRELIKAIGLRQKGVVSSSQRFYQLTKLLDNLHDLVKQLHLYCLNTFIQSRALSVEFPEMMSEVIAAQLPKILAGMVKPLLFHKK
The data set can be described thus: T47D alkaline phosphatase assay, PR antagonistic activity in the presence of 1 nM P4. Particulars: for IC50: T47D cells, 1.0 nM P4, 48 h, mean ± SD from three independent experiments. Type of data set: cell-based. The protocol:
The PR agonistic and antagonistic activities of the synthesized phosphine–borane derivatives were evaluated using an alkaline phosphatase assay with the T47D human breast cancer cell line. […] The basal alkaline phosphatase activity was also not affected by the tested compounds alone. […] The PR antagonistic activities of the compounds were assessed in the presence of 1 nM of P4 (5). We also calculated the molecular volume of each compound to investigate the structure–activity relationship (SAR). Table 2 summarizes the PR antagonistic activity and calculated volumes of the synthesized compounds. […] We investigated the binding affinity of the compounds toward the PR ligand-binding domain (LBD) using a fluorescence polarization assay system. […] We also investigated the activity of compounds 28 and 34 toward the androgen receptor (AR) by means of cell-proliferation promoting/inhibitory activity toward androgen-dependent SC-3 cells. […].
T47D alkaline phosphatase assays were performed as previously described, with minor modifications. Briefly, the human breast cancer cell line T47D (HMS LINCS database Accession Numbers: 50541) was routinely cultivated in RPMI 1640 medium with 10% FBS at 37 °C in a 5% CO2 humidified incubator. The cells were plated in 96-well plates and incubated overnight in a 5% CO2 humidified incubator at 37 °C. The next day, the cells were treated with a fresh medium containing the test compound in the presence of 1 nM of progesterone and further incubated for 48 h. The medium was aspirated, and the cells were fixed with 100 μL of 1.8% formalin–PBS. The fixed cells were washed with PBS, and 100 μL of an assay buffer (1 mg/mL p-nitrophenol phosphate in diethanolamine water solution, pH 9.0) was added. The mixture was incubated at room temperature for 2 h under light-shielded conditions. The absorbance was measured at 405 nm using a DTX 880 Multimode Detector (Beckman Coulter, Brea, CA, USA). All data points were measured in triplicate, and IC50 values were calculated from three independent experiments.

The next data set concerns the target T2, androgen receptor (AR) (Mus musculus, UniProt P19091).
T2 construct: SC-3 cells were cultured in MEMα (Fujifilm Wako Co.) supplemented with 2 %; endogenous in cells; host or cells: SC-3
T2 sequence (P19091 1-899): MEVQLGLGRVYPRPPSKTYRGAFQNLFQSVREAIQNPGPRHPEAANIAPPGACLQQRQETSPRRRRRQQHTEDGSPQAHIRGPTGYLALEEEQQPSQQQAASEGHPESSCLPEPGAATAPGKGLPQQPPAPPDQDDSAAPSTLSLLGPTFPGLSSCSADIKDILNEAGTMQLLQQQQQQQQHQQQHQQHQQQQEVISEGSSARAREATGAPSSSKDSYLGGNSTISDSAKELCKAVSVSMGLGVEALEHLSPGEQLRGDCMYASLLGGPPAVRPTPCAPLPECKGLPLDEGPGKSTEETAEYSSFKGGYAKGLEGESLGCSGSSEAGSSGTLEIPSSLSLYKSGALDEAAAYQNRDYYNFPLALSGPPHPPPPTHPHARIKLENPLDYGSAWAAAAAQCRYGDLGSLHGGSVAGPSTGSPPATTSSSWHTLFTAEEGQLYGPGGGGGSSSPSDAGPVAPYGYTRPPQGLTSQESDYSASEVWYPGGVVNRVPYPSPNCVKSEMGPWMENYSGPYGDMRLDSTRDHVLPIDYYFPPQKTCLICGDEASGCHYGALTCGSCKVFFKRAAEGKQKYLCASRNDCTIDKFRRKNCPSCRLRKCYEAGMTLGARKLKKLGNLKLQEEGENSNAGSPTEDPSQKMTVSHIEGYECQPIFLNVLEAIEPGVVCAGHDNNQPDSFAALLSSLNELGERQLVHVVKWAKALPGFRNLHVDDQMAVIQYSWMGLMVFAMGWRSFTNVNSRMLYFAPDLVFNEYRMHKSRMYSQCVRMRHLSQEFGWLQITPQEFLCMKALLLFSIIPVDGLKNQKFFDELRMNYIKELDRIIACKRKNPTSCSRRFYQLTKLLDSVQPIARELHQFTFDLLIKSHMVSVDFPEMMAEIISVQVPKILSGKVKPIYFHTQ
Briefly: SC-3 cell proliferation assay, AR antagonistic activity (1 nM DHT-promoted proliferation). Type of data set: cell-based, murine. Particulars: for effect on SC-3 cell growth in the presence of dihydrotestosterone (AR antagonistic activity): androgen-dependent SC-3 cells; for IC50: read-out: IC50 (antagonist).

For `C[P+](C)(C)[BH2-]c1ccc(C(F)(F)F)cc1` [Compound 28, B-4-(Trifluoromethyl)phenyl Trimethylphosphine–Borane], the IC50 in data set [1] was more than 10 µM. In addition, on androgen receptor (AR), the “effect on SC-3 cell growth in the presence of dihydrotestosterone (AR antagonistic activity)” value is given as “did not affect cell growth” and the half-inhibitory concentration (IC50) is more than 10 µM.
`FC(F)(F)c1ccc([BH2-][P+](C2CC2)(C2CC2)C2CC2)cc1` [Compound 34, B-4-(Trifluoromethyl)phenyl Tricyclopropylphosphine–Borane] returned a melting point of 72.6 to 72.8 °C. The “potency relative to triisopropylphosphine derivative 32” value in data set [1] (T47D alkaline phosphatase assay, comparison of IC50) was “approximately three times more potent”. Moreover, the IC50 in data set [1] is 0.54 ± 0.09 µM. In addition, on androgen receptor (AR), the “effect on SC-3 cell growth in the presence of dihydrotestosterone (AR antagonistic activity)” value was “did not affect cell growth” and the IC50 was more than 10 µM.

As usually defined, the IC50 is the concentration that gives 50% inhibition. As a reminder, the melting point is the temperature, or range, at which the solid turns liquid.

The values above are taken from paper PMC11013038, “Design, Synthesis, and Evaluation of B-(Trifluoromethyl)phenyl Phosphine–Borane Derivatives as Novel Progesterone Receptor Antagonists” (Molecules, 2024).
